{
  "source": "ChEMBL document CHEMBL5726211",
  "about": "“SGC stimulators” (2019)",
  "data": [
    {"experiment": "HEK WC Assay: Human embryonic kidney cells (HEK293), endogenously expressing soluble guanylate cyclase (sGC), were used to evaluate the activity of test compounds. Compounds stimulating the sGC receptor should cause an increase in the intracellular concentration of cGMP. HEK 293 cells were seeded in Dulbecco's Modification of Eagle's Medium supplemented with fetal bovine serum (10% final) and L-glutamine (2 mM final) in a 200 μL volume at a density of 1×10^5 cells/well in a poly-D-lysine coated 96 well flat bottom plate and grown overnight at 37° C. Medium was aspirated and cells were washed with 1× Hank's Buffered Saline Salt Solution (200 μL). Cells were then incubated for 15 minutes at 37° C. with 0.5 mM 3-isobutyl-1-methylxanthine (200 μL). Test article and sodium nitroprusside were then added to the assay mixture (2 μL each) and incubated at 37° C. for 10 minutes. After the 10 minute incubation, the assay mixture was aspirated and 0.1M HCl (200 μL) was added to the cells. The plate was incubated at 4° C. for 30 minutes in the 0.1M HCl to stop the reaction and lysed the cells. The plates were then centrifuged at 1,200 g for 5 minutes at room temperature. Supernatants were collected and transferred to a new flat bottom 96 well plate for analysis. Vehicle controls were carried out using DMSO (1%). A known sGC stimulator, BAY 41-2272, was used as the positive control. Samples were diluted with an equal volume of 1 M Ammonium Acetate (pH 7) to neutralize samples for better chromatography. A 2×cGMP standard curve was prepared in 0.1 M HCl and then diluted with an equal volume of 1 M Ammonium Acetate, with the following final concentrations in nM: 1024, 512, 256, 128, 64, 32, 16, 8, 4, 2, 1. cGMP concentrations were determined from each sample using the LC/MS conditions (Table 2 below) and calculated standard curve. EC50 values were calculated from concentration-response curves generated with GraphPad Prism Software.", "type": "cell-based", "units": {"EC50": "µM"}, "values": [
      {"smiles": "Nc1nc(-c2cc(-c3ccon3)n(Cc3ccccc3F)n2)ncc1NC(=O)c1cscn1", "EC50": "< 20"},
      {"smiles": "CN(C)c1ccccc1C(=O)Nc1cnc(-c2cc(-c3ccon3)n(Cc3ccccc3F)n2)nc1N", "EC50": "40 to 60"},
      {"smiles": "COc1ccc(C(=O)Nc2cnc(-c3cc(-c4ccon4)n(Cc4ccccc4F)n3)nc2N)cc1", "EC50": "< 20"},
      {"smiles": "[C-]#[N+]c1cc(-c2ccccn2)nn1Cc1ccccc1F", "EC50": 30},
      {"smiles": "CC(C)(F)C(=O)Nc1cnc(-c2cc(-c3ccon3)n(Cc3ccccc3F)n2)nc1N", "EC50": "< 20"},
      {"smiles": "Nc1nc(-c2cc(-c3ccon3)n(Cc3ccccc3F)n2)ncc1NC(=O)C1CC2C=CC1C2", "note": "(stereo unspecified)", "EC50": "< 20"},
      {"smiles": "Nc1nc(-c2cc(-c3ncco3)n(Cc3ccccc3F)n2)ncc1NC(=O)C1(C(F)(F)F)CC1", "EC50": "< 20"},
      {"smiles": "Nc1nc(-c2cc(-c3ccon3)n(Cc3ccccc3F)n2)ncc1NC(=O)c1cccc(OC(F)(F)F)c1", "EC50": "< 20"},
      {"smiles": "[C-]#[N+]C1(C(=O)Nc2cnc(-c3cc(-c4ccon4)n(Cc4ccccc4F)n3)nc2N)CC1", "EC50": "< 20"},
      {"smiles": "Cc1cccc(C)c1C(=O)Nc1cnc(-c2cc(-c3ccon3)n(Cc3ccccc3F)n2)nc1N", "EC50": "< 20"},
      {"smiles": "CCOC(=O)c1cnc(-c2cc(-c3ccon3)n(Cc3ccccc3F)n2)nc1O", "EC50": "20 to 40"}
    ]}
  ]
}
